Measurements published in ChEMBL document CHEMBL1201862, “PubChem BioAssay data set” (2004).
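Exposure lasted 48 hours, with cells grown in 96-well plates and compounds tested at five concentrations. GI50 marks 50% less growth.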 Active and inactive are the calls of the source. Rule as the data show it: active = GI50 up to about 1.1 µM and inactive = higher.

Tests used:
Assay in all cases: DTP human tumour cell line panel, 48 h
XF498 = tested on: XF498
DMS-273 = tested on: DMS-273
RXF 631 = tested on: RXF 631
HOP-18 = tested on: HOP-18
M19-MEL = tested on: M19-MEL
DMS-114 = tested on: DMS-114
DLD-1 = tested on: DLD-1
T47D = tested on: T47D
BT-549 = tested on: BT-549

Measured: GI50

CCc1cccc(C(C)C)c1NC(=O)C(=O)C(C(=O)C(=O)OC)c1nc2ccccc2nc1O (configuration not stated)
inactive: XF498 > 100 µM | DMS-273 > 100 µM | RXF 631 > 100 µM | HOP-18 > 100 µM | M19-MEL > 100 µM | DMS-114 > 100 µM

CCCc1cc(OC(=O)c2c(O)cc(OC)cc2CCC)cc(O)c1C(=O)O
inactive: XF498 25.9 µM | DMS-273 32.1 µM | DLD-1 36.5 µM | RXF 631 26.3 µM | M19-MEL 42.8 µM | DMS-114 19.6 µM

COc1ccccc1NC(=O)CC(=O)n1nc(C)c(/N=N/c2ccccc2Cl)c1C
inactive: T47D > 100 µM | XF498 > 100 µM | DMS-273 > 100 µM | BT-549 > 81.7 µM | DLD-1 > 100 µM | RXF 631 > 31.6 µM | HOP-18 > 100 µM | M19-MEL > 100 µM | DMS-114 > 100 µM

CCCCCCCCCCCCCCCCCCN(C)C(COC)COP(=O)([O-])OCC[N+](C)(C)C (configuration not stated)
inactive: T47D 18.4 µM | XF498 18.6 µM | DMS-273 1.38 µM | BT-549 9.18 µM | DLD-1 3.48 µM | RXF 631 6.85 µM | HOP-18 6.08 µM | M19-MEL 3.25 µM

O=C1/C(=C/c2cc(O)c(O)c(O)c2)Oc2cc(O)cc(OC3OC(CO)C(O)C(O)C3O)c21 (configuration not stated)
inactive: DMS-273 1.85 µM | DLD-1 18.7 µM | RXF 631 1.81 µM | HOP-18 53.5 µM | M19-MEL 18 µM | DMS-114 25.2 µM

CC/C(C)=C1\CCC(CN(C)C)C1=O (configuration not stated)
inactive: XF498 19.7 µM | DMS-273 18.9 µM | DLD-1 16.4 µM | RXF 631 19.9 µM | HOP-18 18.2 µM | M19-MEL 18.1 µM | DMS-114 23.4 µM

CCOc1ccccc1NC(=O)C(=O)Cc1nc2ccccc2s1
inactive: XF498 > 100 µM | DMS-273 > 100 µM | DLD-1 > 100 µM | RXF 631 > 100 µM | HOP-18 > 100 µM | M19-MEL > 100 µM | DMS-114 > 100 µM

COC(=O)C(CCS(=O)(=O)CC(=O)C(=O)Nc1cccc(C(C)=O)c1)C(=O)OC
inactive: XF498 > 100 µM | DMS-273 > 100 µM | DLD-1 > 56.2 µM | RXF 631 > 100 µM | HOP-18 > 100 µM | M19-MEL > 100 µM | DMS-114 > 39.4 µM

N/N=C1\C(=O)N(C2CCCCC2)C(=O)C1C(=O)NC1CCCCC1 (configuration not stated)
inactive: XF498 > 100 µM | DLD-1 > 100 µM | RXF 631 > 100 µM | HOP-18 > 100 µM | M19-MEL > 100 µM | DMS-114 > 100 µM

N#C/C(=C\c1cccc(Cl)c1Cl)c1ccccc1
inactive: XF498 > 42.3 µM | DMS-273 21 µM | DLD-1 > 72.8 µM | RXF 631 50 µM | HOP-18 52.2 µM | M19-MEL > 84.3 µM | DMS-114 43.7 µM

CCOC(=O)C1(C/C=C(/C)Cl)CCCC1=O (configuration not stated)
inactive: XF498 > 100 µM | DMS-273 23 µM | DLD-1 71.3 µM | RXF 631 95.1 µM | HOP-18 > 100 µM | M19-MEL > 100 µM | DMS-114 71.6 µM

COC(=O)C1Cc2c([nH]c3ccccc23)C(C2CCCCC2)N1 (configuration not stated)
inactive: DMS-273 > 100 µM | DLD-1 > 100 µM | RXF 631 > 100 µM | HOP-18 > 100 µM | M19-MEL > 100 µM | DMS-114 > 100 µM

NC1=NN(c2ccccc2)C(=O)C1/C(=N\NC(=O)c1cc2ccccc2cc1O)C(=O)Nc1nc([N+](=O)[O-])cs1 (configuration not stated)
inactive: XF498 36.6 µM | DMS-273 > 45.2 µM | DLD-1 31.5 µM | RXF 631 22.7 µM | HOP-18 40 µM | M19-MEL 27.8 µM | DMS-114 18.4 µM

CC1CC(C2=CC=CCS2)=Nc2ccccc2S1 (configuration not stated)
inactive: XF498 > 100 µM | DMS-273 > 100 µM | DLD-1 70 µM | RXF 631 > 100 µM | HOP-18 > 100 µM | M19-MEL > 100 µM

CCOc1ccc(NC(=O)CC#N)cc1
inactive: XF498 > 100 µM | DMS-273 > 100 µM | DLD-1 > 100 µM | RXF 631 > 100 µM | HOP-18 > 100 µM | M19-MEL > 100 µM

COc1ccc2cc3[n+](cc2c1OC)CCc1cc(O)c(O)cc1-3
inactive: XF498 > 100 µM | DMS-273 > 100 µM | DLD-1 > 100 µM | RXF 631 > 100 µM | M19-MEL > 100 µM | DMS-114 > 100 µM
